Experimental data taken from patent publication US12599582B2, “Pyrrole compounds” (ALIGOS THERAPEUTICS, INC., priority 2019, dated 2026).
Read-outs that look alike come from different tables or passages of the source.

System: HBV
Assay: HBV-DNA Antiviral Assay Using HepG2.2.15 Cells (extracellular HBV DNA by qPCR)
Type: cell-based, hepatitis B virus (HBV)
Details: HBV DNA inhibition, HepG2.2.15 cells, extracellular HBV DNA by qPCR, read-out: EC50
Experimental: The following assay procedure describes the HBV antiviral assay. This assay uses HepG2.2.15 cells, which have been transfected with HBV genome, and extracellular HBV DNA quantification as endpoint. Cell viability is assessed in parallel by measuring the intracellular ATP content using the CellTiter-Glo® reagent from Promega.
On day 0, HepG2.2.15 cells were seeded in 96-well plates at a density of 6.0×10^4 cells/well (0.1 mL/well). The cells were incubated at 37° C. and 5% CO2.
On day 1, the test articles were diluted and added to cell culture wells (8 concentrations, 4-fold dilution, in duplicate). GLS4, Tenofovir and Sorafenib were used as reference compounds. 100 μL of culture medium containing the compounds was added to the plate, and the final total volume per well was 200 μL. The final concentration of DMSO in the culture medium was 0.5%. The plate map of compound treatment is shown below. The cells were cultured at 37° C. and 5% CO2 for 3 days.
On day 4, the plates were refreshed with culture media with compounds.
On day 7, cell viability was assessed using the CellTiter-Glo®, and the cell culture supernatants were collected for determination of HBV DNA by qPCR.
Extracellular DNA was isolated with QIAamp 96 DNA Blood Kit per the manufacturer's manual. HBV DNA was then quantified by qPCR with HBV specific primers and probes as specified in Table 1 using the FastStart Universal MasterMix from Roche on an ABI-7900HT. The PCR cycle program consisted of 95° C. for 10 min, followed by 40 cycles at 95° C. for 15 sec and 60° C. for 1 min.
A DNA standard was prepared by dilution of the pAAV2 HBV1.3 plasmid with concentrations ranging from 10 to 1×10^7 copies/uL and used to generate a standard curve by plotting Ct value vs. the concentration of the HBV plasmid DNA standard. The quantity of HBV DNA in each sample was determined by interpolating from the standard curve.
Cell viability was calculated as follows: % Cell viability=(luminescence value of test sample−average luminescence value of blank)/(average luminescence value of 0.5% DMSO control−average luminescence of blank)×100%. HBV DNA inhibition was calculated as follows: 100−(HBV DNA copy number of test sample−HBV DNA copy number of ETV)/HBV DNA copy number of 0.5% DMSO control−HBV DNA copy number of ETV)×100%. The CC50, EC50 and EC90 values were determined by dose-response curves fitted by GraphPad Prism using “log (agonist) vs. response—Variable slope”.

For `C#CC1(NC(=O)C(=O)c2c(F)c(C(=O)Nc3ccc(F)c(C#N)c3)n(C)c2C)CC(F)(F)C1` [Compound 56, N-(3-cyano-4-fluoro-phenyl)-4-[2-[(1-ethynyl-3,3-difluoro-cyclobutyl)amino]-2-oxo-acetyl]-3-fluoro-1,5-dimethyl-pyrrole-2-carboxamide], the EC50 (Hepatitis B virus) was less than 1 nM.

Work on `C#C[C@H](NC(=O)C(=O)c1c(C)c(C(=O)Nc2ccc(F)c(C#N)c2)n(C)c1C)C1COC1` [Compound 57] yielded an EC50 of less than 1 nM.

`C#C[C@@H](NC(=O)C(=O)c1c(C)c(C(=O)Nc2ccc(F)c(C#N)c2)n(C)c1C)C1COC1` [Compound 58, N-(3-cyano-4-fluoro-phenyl)-1,3,5-trimethyl-4-[2-oxo-2-[[(1S)-1-(oxetan-3-yl)prop-2-ynyl]amino]acetyl]pyrrole-2-carboxamide] gave an EC50 (Hepatitis B virus) of 1 to 10 nM.

Compound `C#C[C@@H](CCO)NC(=O)C(=O)c1c(C)c(C(=O)Nc2ccc(F)c(C#N)c2)n(C)c1C` [Compound 61a, N-(3-cyano-4-fluoro-phenyl)-1,3,5-trimethyl-4-[2-oxo-2-[[(1R)-1-(2-hydroxyethyl)prop-2-ynyl]amino]acetyl]pyrrole-2-carboxamide] has an EC50 (Hepatitis B virus) of 1 to 10 nM.

`C#C[C@H](CCO)NC(=O)C(=O)c1c(C)c(C(=O)Nc2ccc(F)c(C#N)c2)n(C)c1C` [Compound 61b, N-(3-cyano-4-fluoro-phenyl)-1,3,5-trimethyl-4-[2-oxo-2-[[(1S)-1-(2-hydroxyethyl)prop-2-ynyl]amino]acetyl]pyrrole-2-carboxamide] was tested, and the EC50 (Hepatitis B virus) was 1 to 10 nM.

`Cc1c(C(=O)C(=O)NC2(C#CC(F)(F)F)CC(O)C2)c(C)n(C)c1C(=O)Nc1ccc(F)c(C#N)c1` (stereo not drawn) [Compound 62, N-(3-cyano-4-fluoro-phenyl)-4-[2-[[3-hydroxy-1-(3,3,3-trifluoroprop-1-ynyl)cyclobutyl]amino]-2-oxo-acetyl]-1,3,5-trimethyl-pyrrole-2-carboxamide] was tested, and the EC50 (Hepatitis B virus) was 100 to 1000 nM.

`C#C[C@](CO)(NC(=O)C(=O)c1c(C)c(C(=O)Nc2ccc(F)c(C#N)c2)n(C)c1C)C1CC1` [Compound 63a, N-(3-cyano-4-fluoro-phenyl)-1,3,5-trimethyl-4-[2-oxo-2-[[(1R)-1-cyclopropyl-1-(hydroxymethyl)prop-2-ynyl]amino]acetyl]pyrrole-2-carboxamide] gave an EC50 (Hepatitis B virus) of 1 to 10 nM.

In the case of `C#C[C@@](CO)(NC(=O)C(=O)c1c(C)c(C(=O)Nc2ccc(F)c(C#N)c2)n(C)c1C)C1CC1` [Compound 63b, N-(3-cyano-4-fluoro-phenyl)-1,3,5-trimethyl-4-[2-oxo-2-[[(1S)-1-cyclopropyl-1-(hydroxymethyl)prop-2-ynyl]amino]acetyl]pyrrole-2-carboxamide], the EC50 (Hepatitis B virus) is reported as 1 to 10 nM.

With `C#C[C@](C)(CO)NC(=O)C(=O)c1c(C)c(C(=O)Nc2ccc(F)c(C#N)c2)n(C)c1C` [Compound 64a, N-(3-cyano-4-fluoro-phenyl)-1,3,5-trimethyl-4-[2-oxo-2-[[(1R)-1-(hydroxymethyl)-1-methyl-prop-2-ynyl]amino]acetyl]pyrrole-2-carboxamide] the EC50 (Hepatitis B virus) was 1 to 10 nM.

For `C#C[C@@](C)(CO)NC(=O)C(=O)c1c(C)c(C(=O)Nc2ccc(F)c(C#N)c2)n(C)c1C` [Compound 64b, N-(3-cyano-4-fluoro-phenyl)-1,3,5-trimethyl-4-[2-oxo-2-[[(1S)-1-(hydroxymethyl)-1-methyl-prop-2-ynyl]amino]acetyl]pyrrole-2-carboxamide], the EC50 (Hepatitis B virus) was 1 to 10 nM.

Compound `C#C[C@](CO)(NC(=O)C(=O)c1c(C)c(C(=O)Nc2ccc(F)c(C(F)(F)F)c2)n(C)c1C)C1CC1` [Compound 65a, N-[4-fluoro-3-(trifluoromethyl)phenyl]-1,3,5-trimethyl-4-[2-oxo-2-[[(1R)-1-cyclopropyl-1-(hydroxymethyl)prop-2-ynyl]amino]acetyl]pyrrole-2-carboxamide] has an EC50 (Hepatitis B virus) of less than 1 nM.

With `C#C[C@@](CO)(NC(=O)C(=O)c1c(C)c(C(=O)Nc2ccc(F)c(C(F)(F)F)c2)n(C)c1C)C1CC1` [Compound 65b, N-[4-fluoro-3-(trifluoromethyl)phenyl]-1,3,5-trimethyl-4-[2-oxo-2-[[(1S)-1-cyclopropyl-1-(hydroxymethyl)prop-2-ynyl]amino]acetyl]pyrrole-2-carboxamide] the EC50 (Hepatitis B virus) was 1 to 10 nM.

`C#C[C@](C)(CO)NC(=O)C(=O)c1c(C)c(C(=O)Nc2ccc(F)c(C(F)(F)F)c2)n(C)c1C` [Compound 66a, (R)—N-(4-fluoro-3-(trifluoromethyl)phenyl)-4-(2-((1-hydroxy-2-methylbut-3-yn-2-yl)amino)-2-oxoacetyl)-1,3,5-trimethyl-1H-pyrrole-2-carboxamide] was tested, and the EC50 (Hepatitis B virus) was less than 1 nM.

In the case of `C#C[C@@](C)(CO)NC(=O)C(=O)c1c(C)c(C(=O)Nc2ccc(F)c(C(F)(F)F)c2)n(C)c1C` [Compound 66b, (S)—N-(4-fluoro-3-(trifluoromethyl)phenyl)-4-(2-((1-hydroxy-2-methylbut-3-yn-2-yl)amino)-2-oxoacetyl)-1,3,5-trimethyl-1H-pyrrole-2-carboxamide], the EC50 (Hepatitis B virus) is reported as 1 to 10 nM.

Work on `C#CC1(NC(=O)C(=O)c2c(C)c(C(=O)Nc3ccnc(F)c3Br)n(C)c2C)COC1` [Compound 67, N-(3-bromo-2-fluoro-4-pyridyl)-4-[2-[(3-ethynyloxetan-3-yl)amino]-2-oxo-acetyl]-1,3,5-trimethyl-pyrrole-2-carboxamide] yielded an EC50 (Hepatitis B virus) of 10 to 100 nM.

In the case of `C#CC1(NC(=O)C(=O)c2c(C)c(C(=O)Nc3ccnc(F)c3Br)n(C)c2C)CC(F)(F)C1` [Compound 68, N-(3-bromo-2-fluoro-4-pyridyl)-4-[2-[(1-ethynyl-3,3-difluoro-cyclobutyl)amino]-2-oxo-acetyl]-1,3,5-trimethyl-pyrrole-2-carboxamide], the EC50 (Hepatitis B virus) is reported as less than 1 nM.

`C=C[C@](C)(CO)NC(=O)C(=O)c1c(C)c(C(=O)Nc2ccc(F)c(C(F)(F)F)c2)n(C)c1C` [Compound 69a, N-[4-fluoro-3-(trifluoromethyl)phenyl]-1,3,5-trimethyl-4-[2-oxo-2-[[(1R)-1-(hydroxymethyl)-1-methyl-allyl]amino]acetyl]pyrrole-2-carboxamide] was tested, and the EC50 (Hepatitis B virus) was 1 to 10 nM.

In the case of `C=C[C@@](C)(CO)NC(=O)C(=O)c1c(C)c(C(=O)Nc2ccc(F)c(C(F)(F)F)c2)n(C)c1C` [Compound 69b, N-[4-fluoro-3-(trifluoromethyl)phenyl]-1,3,5-trimethyl-4-[2-oxo-2-[[(1S)-1-(hydroxymethyl)-1-methyl-allyl]amino]acetyl]pyrrole-2-carboxamide], the EC50 (Hepatitis B virus) is reported as 1 to 10 nM.

Work on `Cc1c(C(=O)C(=O)NC(C)(C)c2cnn(C)c2)c(C)n(C)c1C(=O)Nc1ccc(F)c(C#N)c1` [Compound 70, N-(3-cyano-4-fluoro-phenyl)-1,3,5-trimethyl-4-[2-[[1-methyl-1-(1-methylpyrazol-4-yl)ethyl]amino]-2-oxo-acetyl]pyrrole-2-carboxamide] yielded an EC50 (Hepatitis B virus) of 1 to 10 nM.

`C#C[C@](CO)(NC(=O)C(=O)c1c(C)c(C(=O)Nc2ccc(F)c(C#N)c2)n(C)c1C)C(F)(F)F` [Compound 71a, N-(3-cyano-4-fluoro-phenyl)-1,3,5-trimethyl-4-[2-oxo-2-[[(1R)-1-(hydroxymethyl)-1-(trifluoromethyl)prop-2-ynyl]amino]acetyl]pyrrole-2-carboxamide] showed an EC50 (Hepatitis B virus) of 1 to 10 nM.

Work on `C#C[C@@](CO)(NC(=O)C(=O)c1c(C)c(C(=O)Nc2ccc(F)c(C#N)c2)n(C)c1C)C(F)(F)F` [Compound 71b, N-(3-cyano-4-fluoro-phenyl)-1,3,5-trimethyl-4-[2-oxo-2-[[(1S)-1-(hydroxymethyl)-1-(trifluoromethyl)prop-2-ynyl]amino]acetyl]pyrrole-2-carboxamide] yielded an EC50 (Hepatitis B virus) of 1 to 10 nM.

`C=C[C@](C)(CO)NC(=O)C(=O)c1c(C)c(C(=O)Nc2ccc(F)c(C#N)c2)n(C)c1C` [Compound 72a, N-(3-cyano-4-fluoro-phenyl)-1,3,5-trimethyl-4-[2-oxo-2-[[(1R)-1-(hydroxymethyl)-1-methyl-allyl]amino]acetyl]pyrrole-2-carboxamide] was tested, and the EC50 (Hepatitis B virus) was 1 to 10 nM.

With `C=C[C@@](C)(CO)NC(=O)C(=O)c1c(C)c(C(=O)Nc2ccc(F)c(C#N)c2)n(C)c1C` [Compound 72b, N-(3-cyano-4-fluoro-phenyl)-1,3,5-trimethyl-4-[2-oxo-2-[[(1S)-1-(hydroxymethyl)-1-methyl-allyl]amino]acetyl]pyrrole-2-carboxamide] the EC50 (Hepatitis B virus) was 1 to 10 nM.

With `C=C[C@](CO)(NC(=O)C(=O)c1c(C)c(C(=O)Nc2ccc(F)c(C#N)c2)n(C)c1C)C(F)(F)F` [Compound 74a, N-(3-cyano-4-fluoro-phenyl)-1,3,5-trimethyl-4-[2-oxo-2-[[(1R)-1-(hydroxymethyl)-1-(trifluoromethyl)allyl]amino]acetyl]pyrrole-2-carboxamide] the EC50 (Hepatitis B virus) was 1 to 10 nM.
